Consider five compounds from patent US20250289813A1, “CDK INHIBITORS, PHARMACEUTICAL COMPOSITIONS, AND THERAPEUTIC APPLICATIONS” (ONQUALITY PHARMACEUTICALS CHINA LTD., priority 2022, published 2025).

In one test the target is CDK4/cyclin D1 (Homo sapiens (Human), UniProt P11802). Briefly: CDK4 Caliper Mobility Shift assay. The format is biochemical. The gist of the method:
(§1)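 Caliper mobility-shift kinase assay with FAM-labeled peptide substrate. CDK4/cyclin D1 (15 nM) ran in 20 mM HEPES pH 7.5, 0.01% Triton X-100 at […] ATP; CDK6/cyclin D1 (7.5 nM) in 50 mM HEPES pH 7.5, 0.0015% BRIJ-35 at […] ATP. Compound was pre-incubated 10 min, reactions ran at 28 °C, and IC50 came from percent conversion inhibition.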

Another test concerns the target CDK6/cyclin D1 (Homo sapiens (Human), UniProt Q00534). The test is described as follows: CDK6 Caliper Mobility Shift assay. The test is classed as biochemical. Put shortly: as §1
Test [1] relates to MCF-7 human breast cancer cells. The test is described as follows: CELLTITER-GLO luminescent cell viability assay. The test is classed as cell-based. As to conditions: MCF7, 192 h, MCF-7 cells, 8 days, read-out: EC50 (Effect on Cell Viability). Put shortly: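 MCF-7 cells grown in EMEM with 10% FBS and insulin, seeded at 3,000 cells/well and left to adhere overnight. Compound exposure lasted 8 days at 37 °C; viability was read by CellTiter-Glo luminescence.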

Test [2] relates to COLO205 human colon cancer cells. The test is described as follows: CASPASE-GLO 3/7 apoptosis assay (protection against chemotherapy drug induced cytotoxicity). The test is classed as cell-based. How it is done:
The CASPASE-GLO 3/7 apoptosis assay was used to evaluate the protective effect of a compound on the cytotoxicity induced by a chemotherapy drug. The apoptosis assay was carried out using COLO205 human colon cancer cells. The cells were grown at 37° C. in a 5% CO2 humidified incubator in PRIM1640 supplemented with 10% FBS and 0.01 mg/mL bovine insulin. The cells were seeded at 4,000 cells/well in a 96-well plate. After incubated overnight, the cells were pretreated with a compound at predetermined concentrations or a vehicle for 16 h, followed by addition of a chemotherapy drug. After incubated for another 48 h, the CASPASE-GLO 3/7 reagent (100 μL/well) was added. The cells were mixed on an orbital shaker for 10 min and incubated at room temperature for 2 h. The 96-well plate was read with an ENVISION reader.

For test [3], the system named is BALB/c mice. The test is described as follows: Irinotecan-induced diarrhea/constipation mouse model. The format is in vivo. As to conditions: Day 7. Here is the method:
A compound was evaluated in an irinotecan-induced diarrhea/constipation mouse model for its protective effect on the cytotoxicity induced by a chemotherapy drug. On day 0, BALB/c mice (20-25 g, 7-8 weeks of age) were randomly divided into 3 groups (vehicle, irinotecan, and compound treatment) with 10 mice in each group. In the vehicle group, the mice were administered orally with the same medium in the same amount as used in the treatment group for the compound and then injected with the same medium in the same amount as used in the irinotecan group. In the irinotecan group, the mice were administered orally with the same medium in the same amount as used in the treatment group for the compound and then injected with irinotecan (240 mg/kg). In the treatment group, the mice were administrated orally with the compound and then injected with irinotecan (240 mg/kg). The compound was formulated with a 0.5% CMC solution. […]
On Day 7, the diarrhea grade of each mouse was determined according to the method described in Kurita et al., Cancer Chemother. Pharmacol. 2000, 46, 211-20, the disclosure of which is incorporated herein by reference in its entirety. The diarrhea remission rates were calculated using the formula of Diarrhea remission rate (%)=(diarrhea grade in […]−diarrhea grade in treatment group)/diarrhea grade in 5-FU group×100%.

The subject of test [4] is BALB/c mice. Briefly: 5-FU-induced diarrhea mouse model. The test is classed as in vivo. The conditions noted are these: day 7. How it is done:
A compound was evaluated in a 5-FU-induced diarrhea mouse model for its protective effect on the cytotoxicity induced by the chemotherapy drug 5-FU. On day 0, BALB/c mice (20-25 g, 7-8 weeks of age) were randomly divided into 3 groups (vehicle, 5-FU, and compound treatment) with 10 mice in each group. In the vehicle group, the mice were administered orally with the same medium in the same amount as used in the treatment group for the compound and then injected with the same medium in the same amount as used in the 5-FU group. In the 5-FU group, the mice were administered orally with the same medium in the same amount as used in the treatment group for the compound and then injected with 5-FU (175 mg/kg). In the treatment group, the mice were administrated orally with the compound and then injected with 5-FU (175 mg/kg). The compound was formulated with a 0.5% CMC solution.
On day 7, the diarrhea grade of each mouse was determined according to the method described in Kurita et al., Cancer Chemother. Pharmacol. 2000, 46, 211-20, the disclosure of which is incorporated herein by reference in its entirety. Diarrhea remission rates were calculated using the formula of Diarrhea remission rate (%)=(diarrhea grade in 5-FU group—diarrhea grade in treatment group)/diarrhea grade in 5-FU group×100%.

The mark [5] stands for this setting: 10 mg/kg oral, 4 h before and 8 h after irinotecan (240 mg/kg).

Chain of CDK4/cyclin D1 (P11802 whole entry): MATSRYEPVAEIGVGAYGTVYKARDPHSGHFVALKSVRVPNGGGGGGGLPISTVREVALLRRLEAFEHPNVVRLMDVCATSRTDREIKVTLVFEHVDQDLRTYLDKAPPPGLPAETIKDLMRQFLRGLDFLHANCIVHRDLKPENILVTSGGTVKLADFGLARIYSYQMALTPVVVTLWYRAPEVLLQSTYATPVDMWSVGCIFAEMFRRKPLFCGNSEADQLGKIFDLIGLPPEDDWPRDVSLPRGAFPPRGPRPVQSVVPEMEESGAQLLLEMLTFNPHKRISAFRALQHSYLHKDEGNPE
Chain of CDK4/cyclin D1 (P24385 whole entry partner): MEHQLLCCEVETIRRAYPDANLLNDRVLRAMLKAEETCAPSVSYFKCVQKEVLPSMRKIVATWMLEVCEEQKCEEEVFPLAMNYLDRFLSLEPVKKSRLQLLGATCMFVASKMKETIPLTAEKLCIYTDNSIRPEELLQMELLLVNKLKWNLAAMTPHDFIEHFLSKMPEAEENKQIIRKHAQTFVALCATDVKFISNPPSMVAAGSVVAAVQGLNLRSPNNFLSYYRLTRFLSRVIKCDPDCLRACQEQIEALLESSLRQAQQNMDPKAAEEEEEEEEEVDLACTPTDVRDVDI
Chain of CDK6/cyclin D1 (Q00534 whole entry): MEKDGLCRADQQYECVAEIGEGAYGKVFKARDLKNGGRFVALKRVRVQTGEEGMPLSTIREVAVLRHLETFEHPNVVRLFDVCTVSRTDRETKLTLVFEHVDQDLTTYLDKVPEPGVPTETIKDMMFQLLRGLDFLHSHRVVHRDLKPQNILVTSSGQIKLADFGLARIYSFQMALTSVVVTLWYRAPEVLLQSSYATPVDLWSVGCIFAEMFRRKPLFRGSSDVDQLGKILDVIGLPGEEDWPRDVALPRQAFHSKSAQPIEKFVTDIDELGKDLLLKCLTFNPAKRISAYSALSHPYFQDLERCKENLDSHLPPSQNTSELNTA
Chain of CDK6/cyclin D1 (P24385 whole entry partner): as the sequence (P24385 whole entry partner) above

Take `CC(=O)NCCOC(=O)NS(=O)(=O)N1CCN(c2ccc(Nc3ncc4c(C)c(C(C)=O)c(=O)n(C5CCCC5)c4n3)nc2)CC1` [Compound A15, 2-Acetamidoethyl ((4-(6-((6-acetyl-8-cyclopentyl-5-methyl-7-oxo-7,8-dihydropyrido[2,3-d]pyrimidin-2-yl)amino)pyridin-3-yl)piperazin-1-yl)sulfonyl)carbamate]: the IC50 is 200 to 500 nM on CDK4/cyclin D1 and no more than 200 nM on CDK6/cyclin D1. The EC50 in test [1] is 1000 to 10000 nM. Moreover, the “RPR (relative protection rate)” value in test [2] (compound 0.1 μM, 5-Fu (10 μM)) came to 28%; in test [2] (compound 1 μM, 5-Fu (10 μM)) it was 84%; in test [2] (compound 10 μM, 5-Fu (10 μM)), 71%. Besides, the “Remission Rate (diarrhea remission rate)” value with BALB/c mice [3] (setting [5]) stood at 40%; with BALB/c mice [3] (50 mg/kg oral, 4 h before and 8 h after irinotecan (240 mg/kg)), 60%.
Take `CC(=O)c1c(C)c2cnc(Nc3ccc(N4CCN(S(=O)(=O)NC(=O)OC5CCOCC5)CC4)cn3)nc2n(C2CCCC2)c1=O` [Compound A22, Tetrahydro-2H-pyran-4-yl ((4-(6-((6-acetyl-8-cyclopentyl-5-methyl-7-oxo-7,8-dihydropyrido[2,3-d]pyrimidin-2-yl)amino)pyridin-3-yl)piperazin-1-yl)sulfonyl)carbamate]: the IC50 on CDK4/cyclin D1 was 200 to 500 nM; at CDK6/cyclin D1, no more than 200 nM. Moreover, the EC50 in test [1] was greater than 10000 nM. Moreover, the “RPR (relative protection rate)” value in test [2] (compound 0.5 μM, 5-Fu (10 μM)) was found to be 26%; in test [2] (compound 25 μM, 5-Fu (10 μM)) it was 64%. The “Remission Rate (diarrhea remission rate)” value in the test with BALB/c mice [4] (50 mg/kg oral, 8 h before and 4 h after 5-FU (175 mg/kg)) was determined as 55%; in the test on BALB/c mice [4] (100 mg/kg oral, 8 h before and 4 h after 5-FU (175 mg/kg)), 36%; in the test with BALB/c mice [3] (5 mg/kg oral, 6 h before and 6 h after irinotecan (240 mg/kg)), 30%; in the test on BALB/c mice [3] (25 mg/kg oral, 6 h before and 6 h after irinotecan (240 mg/kg)) it was 50%.
Take `CCC(=O)NS(=O)(=O)N1CCN(c2ccc(Nc3ncc4c(C)c(C(C)=O)c(=O)n(C5CCCC5)c4n3)nc2)CC1` [Compound A35, N-((4-(6-((6-Acetyl-8-cyclopentyl-5-methyl-7-oxo-7,8-dihydropyrido[2,3-d]-pyrimidin-2-yl)amino)pyridin-3-yl)piperazin-1-yl)sulfonyl)propionamide]: the IC50 on CDK4/cyclin D1 and at CDK6/cyclin D1 was no more than 200 nM each time. Moreover, the concentration for a half-maximal effect (EC50) in test [1] was 1000 to 10000 nM. In addition, the “RPR (relative protection rate)” value in test [2] (compound 2 μM, Irinotecan (20 μM)) came to 83%; in test [2] (compound 20 μM, Irinotecan (20 μM)), 81%. Further, the “Remission Rate (diarrhea remission rate)” value with BALB/c mice [4] (5 mg/kg oral, 12 h before 5-FU (175 mg/kg)) turned out to be 40%; in the test on BALB/c mice [4] (25 mg/kg oral, 12 h before 5-FU (175 mg/kg)), 50%; in the test on BALB/c mice [3] (10 mg/kg oral, 6 h before and 6 h after irinotecan (240 mg/kg)), 50%; in the test with BALB/c mice [3] (100 mg/kg oral, 6 h before and 6 h after irinotecan (240 mg/kg)), 70%.
On to `CC(=O)c1c(C)c2cnc(Nc3ccc(N4CCN(S(=O)(=O)OCOC(=O)C(C)(C)C)CC4)cn3)nc2n(C2CCCC2)c1=O` [Compound B1, (((4-(6-((6-acetyl-8-cyclopentyl-5-methyl-7-oxo-7,8-dihydropyrido[2,3-d]-pyrimidin-2-yl)amino)pyridin-3-yl)piperazin-1-yl)sulfonyl)oxy)methyl pivalate], for which the IC50 at CDK4/cyclin D1 and on CDK6/cyclin D1 was no more than 200 nM each time. Besides, the EC50 in test [1] was no more than 1000 nM. Further, the “RPR (relative protection rate)” value in test [2] (compound 5 μM, Irinotecan (20 μM)) worked out at 90%; in test [2] (compound 50 μM, Irinotecan (20 μM)), 65%; in test [2] (compound 100 μM, Irinotecan (20 μM)) it was 32%. For the same compound, the “Remission Rate (diarrhea remission rate)” value in the test on BALB/c mice [4] (10 mg/kg oral, 8 h before and 4 h after 5-FU (175 mg/kg)) is reported as 38%; in the test with BALB/c mice [3] (setting [5]) it was 60%.
On to `CCS(=O)(=O)N1CCN(c2ccc(Nc3ncc4c(C)c(C(C)=O)c(=O)n(C5CCCC5)c4n3)nc2)CC1` [Compound C2, 6-Acetyl-8-cyclopentyl-2-((5-(4-(ethylsulfonyl)piperazin-1-yl)pyridin-2-yl)-amino)-5-methylpyrido[2,3-d]pyrimidin-7(81)-one], for which the IC50 at CDK4/cyclin D1 and at CDK6/cyclin D1 was no more than 200 nM throughout. The “RPR (relative protection rate)” value in test [2] (compound 0.2 μM, 5-Fu (10 μM)) came to 59%; in test [2] (compound 2 μM, 5-Fu (10 μM)), 79%; in test [2] (compound 20 μM, 5-Fu (10 μM)), 87%. Besides, the “Remission Rate (diarrhea remission rate)” value with BALB/c mice [4] (75 mg/kg oral, 8 h before and 4 h after 5-FU (175 mg/kg)) is recorded as 50%; in the test on BALB/c mice [3] (75 mg/kg oral, 4 h before and 8 h after irinotecan (240 mg/kg)) it was 30%.
